Values quoted from earlier work as cited in patent US11192954B2, “Compounds and methods for the treatment of TROP2 positive diseases” (BIO-THERA SOLUTIONS, LTD., priority 2017, dated 2021).

Columns and labels:
[1] = system: Lewis lung carcinoma and B-16 melanocarcinoma solid murine tumor models; settings: mouse, in vivo; cited from earlier work
[2] = system: multiple cancer cell lines; settings: cited from earlier work

Row | SMILES | Activity against murine tumors [1] | Activity against multiple cancer cell lines [2]
1 | COc1cc2cc(c1Cl)N(C)C(=O)C[C@H](OC(=O)[C@H](C)N(C)C(C)=O)[C@]1(C)O[C@H]1[C@H](C)[C@@H]1C[C@@](O)(NC(=O)O1)[C@H](OC)/C=C/C=C(\C)C2 [Maytansine] | significant inhibitory activity | 
2 | COc1cc2cc(c1Cl)N(C)C(=O)C[C@H](OC(=O)C(C)C)[C@]1(C)O[C@@H]1[C@H](C)[C@@H]1C[C@@](O)(NC(=O)O1)[C@H](OC)/C=C/C=C(\C)C2 [Ansamitocin P3] |  | effective
